Target: PIK3CD (Human) (UniProt O00329)
Sequence (O00329 whole entry, looked up): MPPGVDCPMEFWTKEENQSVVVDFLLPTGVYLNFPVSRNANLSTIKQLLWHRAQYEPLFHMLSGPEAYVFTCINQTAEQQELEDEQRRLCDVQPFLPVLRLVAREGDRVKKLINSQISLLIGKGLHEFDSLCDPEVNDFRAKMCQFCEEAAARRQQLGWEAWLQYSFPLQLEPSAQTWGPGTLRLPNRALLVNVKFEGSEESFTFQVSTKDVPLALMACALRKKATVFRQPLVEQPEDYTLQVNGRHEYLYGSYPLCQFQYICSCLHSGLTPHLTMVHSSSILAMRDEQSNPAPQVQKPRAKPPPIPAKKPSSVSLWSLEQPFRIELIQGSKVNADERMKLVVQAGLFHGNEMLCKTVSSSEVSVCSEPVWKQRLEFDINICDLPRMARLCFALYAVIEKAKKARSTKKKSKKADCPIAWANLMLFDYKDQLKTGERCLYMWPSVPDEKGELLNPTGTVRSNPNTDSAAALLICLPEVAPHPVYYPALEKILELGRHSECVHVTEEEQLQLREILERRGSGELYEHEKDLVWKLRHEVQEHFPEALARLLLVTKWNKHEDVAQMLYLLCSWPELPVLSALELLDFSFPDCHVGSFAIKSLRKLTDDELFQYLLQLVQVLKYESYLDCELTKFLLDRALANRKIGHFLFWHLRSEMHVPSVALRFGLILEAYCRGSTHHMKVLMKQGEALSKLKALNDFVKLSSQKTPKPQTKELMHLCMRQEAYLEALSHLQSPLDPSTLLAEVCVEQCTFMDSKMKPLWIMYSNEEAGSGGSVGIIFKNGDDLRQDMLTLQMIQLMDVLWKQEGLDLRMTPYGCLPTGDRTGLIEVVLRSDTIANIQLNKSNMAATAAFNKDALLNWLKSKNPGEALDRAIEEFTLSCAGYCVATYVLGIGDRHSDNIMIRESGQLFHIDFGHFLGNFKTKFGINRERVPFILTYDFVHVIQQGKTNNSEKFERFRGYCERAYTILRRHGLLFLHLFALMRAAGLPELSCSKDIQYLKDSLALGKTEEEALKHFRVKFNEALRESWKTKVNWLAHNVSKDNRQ

COc1c([C@@H](C)n2nc(C)c3c(N)ncnc32)cc(Cl)c(C#N)c1C1CN(C[C@@H](C)O)C1
IC50: 50 to 200 nM

Reference: the Kinase Knowledgebase extract (Sharma et al. 2016)
